According to patent USRE38117E1, “Trioxane dimer compound having antiproliferative and antitumor activities” (Hauser, Inc., priority 1995, dated 2003):

Key:
Format in all cases: cell-based
[1] = tested on: MDA-MB231/ATCC; assay: NCI 60 cell line screen (SRB), Breast Cancer
[2] = tested on: HCC-2998; assay: NCI 60 cell line screen (SRB), Colon Cancer; settings: HCC-2998 (Colon Cancer)
[3] = tested on: OVCAR-5; assay: NCI 60 cell line screen (SRB), Ovarian Cancer; settings: OVCAR-5 (Ovarian Cancer)
[4] = tested on: NCI-H322M; assay: NCI 60 cell line screen (SRB), Non-Small Cell Lung Cancer
[5] = tested on: BT-549; assay: NCI 60 cell line screen (SRB), Breast Cancer; settings: BT-549 (Breast Cancer)
[6] = tested on: SNB-19; assay: NCI 60 cell line screen (SRB), CNS Cancer; settings: SNB-19 (CNS Cancer)
[7] = tested on: SK-MEL-2; assay: NCI 60 cell line screen (SRB), Melanoma; settings: SK-MEL-2 (Melanoma)
[8] = tested on: MCF7; assay: NCI 60 cell line screen (SRB), Breast Cancer
[9] = tested on: RPMI-8226; assay: NCI 60 cell line screen (SRB), Leukemia; settings: RPMI-8226 (Leukemia)
[10] = tested on: MALME-3M; assay: NCI 60 cell line screen (SRB), Melanoma; settings: MALME-3M (Melanoma)
[11] = tested on: 786-0; assay: NCI 60 cell line screen (SRB), Renal Cancer; settings: 786-0 (Renal Cancer)
[12] = tested on: UACC-62; assay: NCI 60 cell line screen (SRB), Melanoma; settings: UACC-62 (Melanoma)
[13] = tested on: MOLT-4; assay: NCI 60 cell line screen (SRB), Leukemia; settings: for drug concentration necessary to achieve primary growth inhibition (percentage growth +50): MOLT-4, read from dose response curves FIGS. 10a-10e
[14] = tested on: UO-31; assay: NCI 60 cell line screen (SRB), Renal Cancer; settings: UO-31 (Renal Cancer)
[15] = tested on: U251; assay: NCI 60 cell line screen (SRB), CNS Cancer
[16] = tested on: T-47D; assay: NCI 60 cell line screen (SRB), Breast Cancer; settings: T-47D (Breast Cancer)
[17] = tested on: HCT-116; assay: NCI 60 cell line screen (SRB), Colon Cancer; settings: HCT-116 (Colon Cancer)
[18] = tested on: M14; assay: NCI 60 cell line screen (SRB), Melanoma
[19] = tested on: COLO 205; assay: NCI 60 cell line screen (SRB), Colon Cancer; settings: COLO 205 (Colon Cancer)
[20] = tested on: NCI-H460; assay: NCI 60 cell line screen (SRB), Non-Small Cell Lung Cancer
[21] = tested on: SR; assay: NCI 60 cell line screen (SRB), Leukemia
[22] = tested on: OVCAR-8; assay: NCI 60 cell line screen (SRB), Ovarian Cancer; settings: OVCAR-8 (Ovarian Cancer)
[23] = tested on: MCF7/ADR-RES; assay: NCI 60 cell line screen (SRB), Breast Cancer
[24] = tested on: OVCAR-3; assay: NCI 60 cell line screen (SRB), Ovarian Cancer; settings: OVCAR-3 (Ovarian Cancer)
[25] = tested on: HS 578T; assay: NCI 60 cell line screen (SRB), Breast Cancer; settings: HS 578T (Breast Cancer)
[26] = tested on: A549/ATCC; assay: NCI 60 cell line screen (SRB), Non-Small Cell Lung Cancer
[27] = tested on: SK-MEL-5; assay: NCI 60 cell line screen (SRB), Melanoma; settings: SK-MEL-5 (Melanoma)
[28] = tested on: NCI-H226; assay: NCI 60 cell line screen (SRB), Non-Small Cell Lung Cancer
[29] = tested on: HOP-92; assay: as above; settings: HOP-92 (Non-Small Cell Lung Cancer)
[30] = tested on: SNB-75; assay: NCI 60 cell line screen (SRB), CNS Cancer; settings: SNB-75 (CNS Cancer)
[31] = tested on: EKVX; assay: NCI 60 cell line screen (SRB), Non-Small Cell Lung Cancer

With `CC(=O)O[C@H]1C(=O)[C@@]2(C)[C@H]([C@H](OC(=O)c3ccccc3)[C@]3(O)C[C@H](OC(=O)[C@H](O)[C@@H](NC(=O)c4ccccc4)c4ccccc4)C(C)=C1C3(C)C)[C@]1(OC(C)=O)CO[C@@H]1C[C@@H]2O` [Paclitaxel, paclitaxel, reference compound] the Log10GI50 [1] was −8.54 M, the Log10TGI [1] was −4.84 M and the Log10GI50 [2] was −12.34 M. For the same molecule, the Log10LC50 [2] was −4.26 M, the Log10TGI [2] was −4.77 M and the Log10GI50 [3] was −9.38 M. For the same molecule, the Log10LC50 [3] was over −4.00 M, the Log10TGI [3] was −4.92 M and the Log10GI50 [4] was −10.12 M. It also gave a Log10LC50 [4] of over −4.00 M, a Log10TGI [4] of −4.46 M and a Log10GI50 [5] of −9.31 M. The Log10LC50 [5] was over −4.00 M, the Log10TGI [5] was −6.32 M and the Log10GI50 [6] was −8.98 M. For the same molecule, the Log10LC50 [6] was over −4.00 M, the Log10TGI [6] was over −4.00 M and the Log10GI50 [7] was −9.53 M. The Log10LC50 [7] was over −4.00 M, the Log10GI50 [8] was −11.69 M and the Log10LC50 [8] was over −4.00 M. The Log10GI50 [9] was under −13.00 M, the Log10LC50 [9] was over −4.00 M and the Log10TGI [9] was over −4.00 M. It also gave a Log10LC50 [10] of −4.11 M, a Log10TGI [10] of −4.46 M and a Log10GI50 [11] of −8.01 M. The Log10LC50 [11] was over −4.00 M, the Log10TGI [11] was over −4.00 M and the Log10GI50 [12] was −10.46 M. It also gave a Log10LC50 [12] of −4.19 M, a Log10TGI [12] of −4.71 M and a Log10GI50 ([13]; MOLT-4 (Leukemia)) of −11.07 M. The Log10LC50 ([13]; MOLT-4 (Leukemia)) was over −4.00 M, the Log10TGI ([13]; MOLT-4 (Leukemia)) was over −4.00 M and the “drug concentration necessary to achieve primary growth inhibition (percentage growth +50)” value [13] was “less than 10^−8 molar”. It also gave a Log10GI50 [14] of −6.09 M, a Log10GI50 [15] of −11.29 M and a Log10LC50 [15] of −4.15 M. It also gave a Log10TGI [15] of −4.32 M, a Log10GI50 [16] of −9.81 M and a Log10LC50 [16] of over −4.00 M. The Log10GI50 [17] was under −13.00 M, the Log10LC50 [17] was over −4.00 M and the Log10TGI [17] was −4.82 M. For the same molecule, the Log10GI50 [18] was −11.73 M, the Log10LC50 [18] was −4.13 M and the Log10TGI [18] was −4.62 M. The Log10GI50 [19] was −11.07 M, the Log10LC50 [19] was over −4.41 M and the Log10GI50 [20] was −12.16 M. It also gave a Log10LC50 [20] of over −4.00 M, a Log10TGI [20] of −4.92 M and a Log10LC50 [21] of over −4.00 M. For the same molecule, the Log10TGI [21] was over −4.00 M, the Log10GI50 [22] was −10.75 M and the Log10LC50 [22] was over −4.00 M. For the same molecule, the Log10GI50 [23] was −8.48 M, the Log10LC50 [23] was over −4.00 M and the Log10TGI [23] was over −4.00 M. It also gave a Log10GI50 [24] of −10.40 M, a Log10LC50 [24] of over −4.00 M and a Log10TGI [24] of −4.55 M.
`C[C@@H]1CC[C@H]2[C@@H](C)C(=O)O[C@@H]3O[C@@]4(C)CC[C@@H]1[C@]32OO4` [QHS, 3,6,9-trimethyl-9,10b-epidioxyperhydropyrano[4,3,2-jk]benzoxepin-2-one, reference compound] was tested, and the Log10GI50 [1] was −4.20 M, the Log10LC50 [1] was over −4.00 M and the Log10TGI [1] was −4.00 M. It also gave a Log10GI50 [2] of over −4.00 M, a Log10LC50 [2] of over −4.00 M and a Log10TGI [2] of over −4.00 M. For the same molecule, the Log10GI50 [25] was over −4.00 M, the Log10LC50 [25] was over −4.00 M and the Log10TGI [25] was over −4.00 M. The Log10GI50 [3] was over −4.00 M, the Log10LC50 [3] was over −4.00 M and the Log10TGI [3] was over −4.00 M. It also gave a Log10GI50 [5] of −4.06 M, a Log10LC50 [5] of over −4.00 M and a Log10TGI [5] of −4.00 M. The Log10GI50 [6] was over −4.00 M, the Log10LC50 [6] was over −4.00 M and the Log10TGI [6] was over −4.00 M. The Log10LC50 [7] was over −4.00 M, the Log10TGI [7] was over −4.00 M and the Log10GI50 [8] was over −4.00 M. The Log10LC50 [8] was over −4.00 M, the Log10TGI [8] was over −4.00 M and the Log10GI50 [9] was over −4.00 M. It also gave a Log10LC50 [9] of over −4.00 M, a Log10TGI [9] of over −4.00 M and a Log10GI50 [26] of −4.17 M. It also gave a Log10LC50 [26] of over −4.00 M, a Log10TGI [26] of over −4.00 M and a Log10LC50 [10] of over −4.00 M. For the same molecule, the Log10TGI [10] was −4.06 M, the Log10GI50 [11] was over −4.00 M and the Log10LC50 [11] was over −4.00 M. The Log10TGI [11] was over −4.00 M, the Log10GI50 [12] was over −4.00 M and the Log10LC50 [12] was over −4.00 M. For the same molecule, the Log10TGI [12] was over −4.00 M, the Log10GI50 ([13]; MOLT-4 (Leukemia)) was −4.73 M and the “drug concentration necessary to achieve primary growth inhibition (percentage growth +50)” value [13] was “greater than 10^−4 molar”. For the same molecule, the Log10GI50 [14] was −4.06 M, the Log10LC50 [14] was over −4.00 M and the Log10TGI [14] was −4.00 M. For the same molecule, the Log10GI50 [15] was over −4.00 M, the Log10LC50 [15] was over −4.00 M and the Log10TGI [15] was over −4.00 M. The Log10GI50 [27] was −4.10 M, the Log10LC50 [27] was over −4.00 M and the Log10TGI [27] was over −4.00 M. It also gave a Log10GI50 [28] of over −4.00 M, a Log10LC50 [28] of over −4.00 M and a Log10TGI [28] of over −4.00 M. For the same molecule, the Log10LC50 [16] was over −4.00 M, the Log10TGI [16] was over −4.00 M and the Log10GI50 [17] was −4.00 M. The Log10LC50 [17] was over −4.00 M, the Log10TGI [17] was over −4.00 M and the Log10LC50 [18] was over −4.00 M. It also gave a Log10TGI [18] of over −4.00 M, a Log10GI50 [19] of over −4.00 M and a Log10LC50 [19] of over −4.00 M. It also gave a Log10TGI [19] of over −4.00 M, a Log10GI50 [29] of over −4.00 M and a Log10LC50 [29] of over −4.00 M. The Log10TGI [29] was over −4.00 M, the Log10GI50 [20] was over −4.00 M and the Log10LC50 [20] was over −4.00 M. It also gave a Log10TGI [20] of over −4.00 M, a Log10GI50 [21] of over −4.00 M and a Log10LC50 [21] of over −4.00 M. For the same molecule, the Log10TGI [21] was over −4.00 M, the Log10GI50 [22] was over −4.00 M and the Log10LC50 [22] was over −4.00 M. For the same molecule, the Log10TGI [22] was over −4.00 M, the Log10GI50 [30] was over −4.00 M and the Log10LC50 [30] was over −4.00 M. For the same molecule, the Log10TGI [30] was over −4.00 M, the Log10GI50 [31] was over −4.00 M and the Log10LC50 [31] was over −4.00 M. For the same molecule, the Log10TGI [31] was over −4.00 M.
